Experimental data taken from paper PMC2962730 (Journal of neurochemistry, 2010).

Target: T1, hVAChT Y60H (Homo sapiens, UniProt Q16572, Y60H)
T1 sequence (Q16572 1-532 Y60H): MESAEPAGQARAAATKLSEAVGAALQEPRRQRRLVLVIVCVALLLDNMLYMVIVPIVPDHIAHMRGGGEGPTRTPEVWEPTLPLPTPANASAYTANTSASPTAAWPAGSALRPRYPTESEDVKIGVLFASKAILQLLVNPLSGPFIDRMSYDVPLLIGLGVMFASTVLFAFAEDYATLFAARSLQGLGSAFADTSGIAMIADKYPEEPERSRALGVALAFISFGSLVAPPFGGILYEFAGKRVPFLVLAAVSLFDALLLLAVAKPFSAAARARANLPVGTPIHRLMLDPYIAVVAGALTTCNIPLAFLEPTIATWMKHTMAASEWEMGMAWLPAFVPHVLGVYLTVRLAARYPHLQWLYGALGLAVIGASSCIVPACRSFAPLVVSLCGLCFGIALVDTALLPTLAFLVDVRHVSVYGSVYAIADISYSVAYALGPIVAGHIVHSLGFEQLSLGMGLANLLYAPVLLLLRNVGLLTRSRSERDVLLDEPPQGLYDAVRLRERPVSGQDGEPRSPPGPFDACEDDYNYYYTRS
Assay: [3H]ACh transport
Format: biochemical

Compound: CC(=O)OCC[N+](C)(C)C [ACh, acetylcholine]
- Vmax/Bmax, ACh transport normalized to Bmax (pH 7.4): 3.1 ± 0.6 min⁻¹
- Km (read-out: KM, Michaelis-Menten constant for ACh transport, pH 7.4): 720 ± 530 µM
